The source made the active and inactive calls. The calls are words filed in the database; no cut-off is given here.
Columns and labels:
[1] = tested on: MCF7; assay: Antiproliferative activity against human MCF7 cells assessed as reduction in cell viability measured after 72 hrs by SRB assay; format: functional, cell-based; conditions: MCF7, 72 h
[2] = tested on: Huh-7; assay: Antiproliferative activity against human Huh-7 cells assessed as reduction in cell viability measured after 72 hrs by SRB assay; format: functional, cell-based; conditions: Huh-7, 72 h
[3] = tested on: Mahlavu; assay: Antiproliferative activity against human Mahlavu cells assessed as reduction in cell viability measured after 72 hrs by SRB assay; format: functional, cell-based
[4] = tested on: Huh-7; assay: Antiproliferative activity against human Huh-7 cells assessed as reduction in cell viability measured after 40 to 150 hrs by RT-CES analysis; format: functional, cell-based; conditions: time 40-150 hrs
[5] = tested on: HepG2; assay: Antiproliferative activity against human HepG2 cells assessed as reduction in cell viability measured after 90 hrs by RT-CES analysis; format: functional, cell-based
[6] = tested on: HepG2; assay: Antiproliferative activity against human HepG2 cells assessed as reduction in cell viability measured for 180 hrs by RT-CES analysis; format: functional, cell-based; conditions: dose 2.5-10 µM
[7] = tested on: Mahlavu; assay: Antiproliferative activity against human Mahlavu cells assessed as reduction in cell viability measured for 180 hrs by RT-CES analysis; format: functional, cell-based; conditions: dose 2.5-10 µM
[8] = tested on: SNU-475; assay: Antiproliferative activity against human SNU-475 cells assessed as reduction in cell viability measured for 180 hrs by RT-CES analysis; format: functional, cell-based; conditions: dose 2.5-10 µM
[9] = tested on: Huh-7; assay: Cell cycle arrest in human Huh-7 cells assessed as increase in accumulation of cells at G2/M phase at 5 uM measured after 48 hrs by propidium iodide staining based flow cytometric analysis; format: functional
[10] = tested on: HepG2; assay: Cell cycle arrest in human HepG2 cells assessed as increase in accumulation of cells at G0/G1 phase at 5 uM measured after 48 hrs by propidium iodide staining based flow cytometric analysis; format: functional
[11] = tested on: SNU-475; assay: Induction of apoptosis in human SNU-475 cells at 5 uM measured after 72 hrs by Annexin V-FITC/propidium iodide staining based flow cytometric analysis; format: functional, cell-based
[12] = tested on: Huh-7; assay: Induction of apoptosis in human Huh-7 cells at 5 uM measured after 72 hrs by Annexin V-FITC/propidium iodide staining based flow cytometric analysis; format: functional, cell-based
[13] = tested on: Mahlavu; assay: Induction of apoptosis in human Mahlavu cells assessed as nuclear fragmentation measured after 48 hrs by Hoechst33258 staining based inverted fluorescent microscopic method; format: functional, cell-based
[14] = tested on: Mahlavu; assay: Activation of p53 harboring G249T mutant in human Mahlavu cells assessed as upregulation of p53 acetylation at Lys382 residue at 5 uM incubated for 72 hrs by western blot analysis; format: cell-based; conditions: filed as activator
[15] = tested on: Huh-7; assay: Activation of p53 harboring C220T mutant in human Huh-7 cells at 5 uM measured after 72 hrs by Western blot analysis; format: cell-based
[16] = tested on: SNU-475; assay: Activation of p53 harboring A239G/T275C/A288G mutant in human SNU-475 cells assessed as upregulation of p21 protein expression at 5 uM incubated for 72 hrs by western blot analysis; format: cell-based; conditions: filed as activator
[17] = tested on: Mahlavu; assay: Activation of p53 harboring G249T mutant in human Mahlavu cells assessed as upregulation of p21 protein expression at 5 uM incubated for 72 hrs by western blot analysis; format: cell-based
[18] = molecular target: T1, Serine/threonine-protein kinase AKT (Homo sapiens) (UniProt P31751+Q9Y243+P31749); assay: Inhibition of Akt phosphorylation at Ser473 residue in human Huh-7 cells at 5 uM measured after 72 hrs by Western blot analysis; format: cell-based
[19] = molecular target: T1, Serine/threonine-protein kinase AKT (Homo sapiens); assay: Inhibition of Akt phosphorylation at Ser473 residue in human HepG2 cells at 5 uM measured after 72 hrs by Western blot analysis; format: cell-based
[20] = Inhibition of PI3K/Akt/mTOR signaling in human Mahlavu cells assessed as downregulation of c-Myc protein expression at 5 uM measured after 72 hrs by Western blot analysis; format: cell-based
[21] = molecular target: T2, Mitogen-activated protein kinase; ERK1/ERK2 (Homo sapiens) (UniProt P27361+P28482); assay: Inhibition of ERK1/2 phosphorylation at T202/Y204 residue in human Mahlavu cells at 5 uM measured after 72 hrs by Western blot analysis; format: cell-based
[22] = tested on: Huh-7; assay: Inhibition of cell stemness in human Huh-7 cells assessed as CD133+/EpCAM+ expression at 10 uM measured after 72 hrs by flow cytometry analysis (reference value: 29.92%); format: functional; set-up: scale not given: the % may be the effect or the level left
[23] = tested on: Mahlavu; assay: Inhibition of cell stemness in human Mahlavu cells assessed as decrease in NANOG level at 10 uM measured after 72 hrs by flow cytometry analysis; format: functional, cell-based
[24] = tested on: Mahlavu; assay: Inhibition of cell stemness in human Mahlavu cells assessed as decrease in OCT4 level at 10 uM measured after 72 hrs by flow cytometry analysis; format: functional, cell-based
[25] = tested on: Huh-7; assay: Inhibition of cell stemness in human Huh-7 cells assessed as decrease in NANOG level at 10 uM measured after 72 hrs by flow cytometry analysis; format: functional, cell-based
[26] = tested on: Huh-7; assay: Inhibition of cell stemness in human Huh-7 cells assessed as reduction in size of tumor spheres at 10 uM incubated for 72 hrs followed by incubation in sphere formation medium for 7 days by microscopic analysis; format: functional, cell-based; conditions: time 10.0 day
[27] = tested on: Huh-7; assay: Inhibition of cell stemness in human Huh-7 cells assessed as reduction in tumor spheres count at 10 uM incubated for 72 hrs followed by incubation in sphere formation medium for 7 days by microscopic analysis; format: functional, cell-based; conditions: time 10.0 day
[28] = tested on: Huh-7; assay: Inhibition of cell stemness in human Huh-7 cells assessed as reduction in size of tumor spheres at 10 uM incubated for 72 hrs followed by incubation in sphere formation medium for 14 days by microscopic analysis; format: functional, cell-based; conditions: time 17.0 day
[29] = tested on: Mahlavu; assay: Induction of apoptosis in human Mahlavu cells assessed as apoptotic body formation measured after 48 hrs by Hoechst33258 staining based inverted fluorescent microscopic method; format: functional, cell-based
[30] = tested on: SNU-475; assay: Induction of apoptosis in human SNU-475 cells assessed as apoptotic body formation measured after 48 hrs by Hoechst33258 staining based inverted fluorescent microscopic method; format: functional, cell-based
[31] = tested on: SNU-475; assay: Induction of apoptosis in human SNU-475 cells assessed as chromatin condensation measured after 48 hrs by Hoechst33258 staining based inverted fluorescent microscopic method; format: functional, cell-based
[32] = tested on: SNU-475; assay: Induction of apoptosis in human SNU-475 cells assessed as nuclear fragmentation measured after 48 hrs by Hoechst33258 staining based inverted fluorescent microscopic method; format: functional, cell-based
[33] = tested on: Huh-7; assay: Induction of apoptosis in human Huh-7 cells assessed as apoptotic body formation measured after 48 hrs by Hoechst33258 staining based inverted fluorescent microscopic method; format: functional, cell-based
[34] = tested on: Huh-7; assay: Induction of apoptosis in human Huh-7 cells assessed as chromatin condensation measured after 48 hrs by Hoechst33258 staining based inverted fluorescent microscopic method; format: functional, cell-based
[35] = tested on: HepG2; assay: Induction of apoptosis in human HepG2 cells assessed as apoptotic body formation measured after 48 hrs by Hoechst33258 staining based inverted fluorescent microscopic method; format: functional, cell-based
[36] = tested on: HepG2; assay: Induction of apoptosis in human HepG2 cells assessed as nuclear fragmentation measured after 48 hrs by Hoechst33258 staining based inverted fluorescent microscopic method; format: functional, cell-based
[37] = molecular target: T2, Mitogen-activated protein kinase; ERK1/ERK2 (Homo sapiens); assay: Downregulation of ERK1/2 phosphorylation at T202/Y204 residue in human SNU-475 cells at 5 uM measured after 72 hrs by Western blot analysis; format: cell-based
[38] = tested on: Huh-7; assay: Inhibition of cell stemness in human Huh-7 cells assessed as decrease in OCT4 level at 10 uM measured after 72 hrs by flow cytometry analysis; format: functional, cell-based

T1 sequence (P31749 whole entry, looked up): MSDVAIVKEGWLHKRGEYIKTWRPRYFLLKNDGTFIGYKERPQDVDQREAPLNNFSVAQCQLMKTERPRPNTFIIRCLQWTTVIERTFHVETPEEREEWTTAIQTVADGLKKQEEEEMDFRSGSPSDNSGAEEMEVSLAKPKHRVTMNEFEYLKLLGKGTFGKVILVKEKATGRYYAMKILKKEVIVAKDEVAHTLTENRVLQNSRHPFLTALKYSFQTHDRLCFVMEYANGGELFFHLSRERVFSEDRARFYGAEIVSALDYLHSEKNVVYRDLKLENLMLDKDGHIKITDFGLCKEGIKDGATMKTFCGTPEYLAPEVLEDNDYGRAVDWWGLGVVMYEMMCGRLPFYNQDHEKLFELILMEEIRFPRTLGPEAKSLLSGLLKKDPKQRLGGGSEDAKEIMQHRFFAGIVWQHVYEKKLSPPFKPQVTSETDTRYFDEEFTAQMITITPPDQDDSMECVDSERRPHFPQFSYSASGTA
T1 sequence (P31751 whole entry, looked up): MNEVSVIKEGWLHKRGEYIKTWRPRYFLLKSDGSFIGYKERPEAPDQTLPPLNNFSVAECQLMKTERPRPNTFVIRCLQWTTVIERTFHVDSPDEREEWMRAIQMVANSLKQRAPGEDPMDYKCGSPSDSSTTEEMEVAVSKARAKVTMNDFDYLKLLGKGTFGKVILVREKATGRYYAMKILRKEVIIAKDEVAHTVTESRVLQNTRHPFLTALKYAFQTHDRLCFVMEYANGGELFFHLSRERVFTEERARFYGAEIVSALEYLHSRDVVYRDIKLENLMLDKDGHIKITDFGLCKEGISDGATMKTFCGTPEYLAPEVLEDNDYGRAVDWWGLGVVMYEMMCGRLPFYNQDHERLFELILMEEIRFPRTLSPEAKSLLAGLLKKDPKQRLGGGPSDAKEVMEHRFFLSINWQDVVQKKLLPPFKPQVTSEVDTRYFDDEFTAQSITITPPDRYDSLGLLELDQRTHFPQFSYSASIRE
T1 sequence (Q9Y243 whole entry, looked up): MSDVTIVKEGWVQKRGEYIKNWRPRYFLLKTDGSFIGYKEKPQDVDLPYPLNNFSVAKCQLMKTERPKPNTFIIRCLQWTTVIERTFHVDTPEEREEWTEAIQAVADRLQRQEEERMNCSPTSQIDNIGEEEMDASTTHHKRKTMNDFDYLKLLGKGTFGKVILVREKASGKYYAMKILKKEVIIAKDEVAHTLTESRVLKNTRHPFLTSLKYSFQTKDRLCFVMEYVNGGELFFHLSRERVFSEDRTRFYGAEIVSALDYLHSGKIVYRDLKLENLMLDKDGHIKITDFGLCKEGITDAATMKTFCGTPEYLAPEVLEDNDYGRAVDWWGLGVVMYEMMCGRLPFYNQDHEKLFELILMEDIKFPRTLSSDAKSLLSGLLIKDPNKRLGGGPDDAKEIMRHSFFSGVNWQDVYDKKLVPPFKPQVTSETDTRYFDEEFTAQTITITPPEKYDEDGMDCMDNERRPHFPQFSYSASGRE
T2 sequence (P27361 whole entry, looked up): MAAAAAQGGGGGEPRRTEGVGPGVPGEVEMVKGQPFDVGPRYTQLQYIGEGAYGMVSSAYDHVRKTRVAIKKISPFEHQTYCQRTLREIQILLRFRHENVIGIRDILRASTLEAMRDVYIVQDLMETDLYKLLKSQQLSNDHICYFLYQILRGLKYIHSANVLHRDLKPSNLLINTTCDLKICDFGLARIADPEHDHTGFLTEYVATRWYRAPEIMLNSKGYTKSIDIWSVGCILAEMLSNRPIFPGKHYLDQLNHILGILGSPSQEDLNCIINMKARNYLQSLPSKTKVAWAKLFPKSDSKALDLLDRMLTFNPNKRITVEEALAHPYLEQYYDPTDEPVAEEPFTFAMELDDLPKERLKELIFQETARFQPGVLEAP
T2 sequence (P28482 whole entry, looked up): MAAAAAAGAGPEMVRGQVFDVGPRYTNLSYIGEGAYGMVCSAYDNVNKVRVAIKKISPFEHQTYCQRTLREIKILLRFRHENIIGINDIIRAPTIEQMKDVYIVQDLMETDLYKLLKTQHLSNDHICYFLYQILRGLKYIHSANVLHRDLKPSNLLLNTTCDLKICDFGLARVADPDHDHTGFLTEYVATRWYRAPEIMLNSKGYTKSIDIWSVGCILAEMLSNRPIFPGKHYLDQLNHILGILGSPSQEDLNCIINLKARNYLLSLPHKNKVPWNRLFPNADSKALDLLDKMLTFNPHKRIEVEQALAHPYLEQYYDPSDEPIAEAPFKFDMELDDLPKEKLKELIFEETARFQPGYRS

SMILES: FC(F)(F)c1ccc(CN2CCN(Cc3cc(-c4ccc(OCc5ccccc5)cc4)on3)CC2)cc1
- IC50 [1]: 2.9 µM
- IC50 [2]: 1.7 µM
- IC50 [3]: 11.7 µM
- Activity [4]: Active
- Activity [5]: Active
- Activity [6]: Dose-Dependent Effect
- Activity [7]: Dose-Dependent Effect
- Activity [8]: Dose-Dependent Effect
- Activity [9]: Active
- Activity [10]: Active
- Activity [11]: Active
- Activity [12]: Active
- Activity [13]: Active
- Activity [14]: Active
- Activity [15]: inactive
- Activity [16]: Active
- Activity [17]: inactive
- inhibition [18]: inactive
- inhibition [19]: inactive
- inhibition [20]: Active
- inhibition [21]: Active
- Activity [22]: 23.68%
- inhibition [23]: Active
- inhibition [24]: Active
- inhibition [25]: Active
- inhibition [26]: Active
- inhibition [27]: Active
- inhibition [28]: Active
- Activity [29]: Active
- Activity [30]: Active
- Activity [31]: Active
- Activity [32]: Active
- Activity [33]: Active
- Activity [34]: Active
- Activity [35]: Active
- Activity [36]: Active
- inhibition [37]: Active
- inhibition [38]: inactive

SMILES: N#Cc1cccc(COc2ccc(-c3cc(CN4CCN(Cc5ccc(C(F)(F)F)cc5)CC4)no3)cc2F)c1
- IC50 [1]: 0.38 µM
- IC50 [2]: 0.09 µM
- IC50 [3]: 0.5 µM
- Activity [4]: Active
- Activity [5]: Active
- Activity [6]: Dose-Dependent Effect
- Activity [7]: Dose-Dependent Effect
- Activity [8]: Dose-Dependent Effect
- Activity [9]: Active
- Activity [10]: Active
- Activity [11]: Active
- Activity [12]: Active
- Activity [13]: Active
- Activity [14]: Active
- Activity [15]: inactive
- Activity [16]: Active
- Activity [17]: inactive
- inhibition [18]: inactive
- inhibition [19]: inactive
- inhibition [20]: Active
- inhibition [21]: Active
- Activity [22]: 13.12%
- inhibition [23]: Active
- inhibition [24]: Active
- inhibition [25]: Active
- inhibition [26]: Active
- inhibition [27]: Active
- inhibition [28]: Active
- Activity [29]: Active
- Activity [30]: Active
- Activity [31]: Active
- Activity [32]: Active
- Activity [33]: Active
- Activity [34]: Active
- Activity [35]: Active
- Activity [36]: Active
- inhibition [37]: Active
- inhibition [38]: inactive

— ChEMBL document CHEMBL4837206, “Synthesis and biological evaluation of novel isoxazole-piperazine hybrids as potential anti-cancer agents with inhibitory effect on liver cancer stem cells” (Eur J Med Chem, 2021)
